Experiment [1] addresses rat brain adenylyl cyclase. As to conditions: cited from earlier work.
Another experiment deals with Ob1771 pre-adipocytes. Description: inhibition of forskolin-stimulated [3H]cAMP formation in cells prelabeled with [3H]adenine, Ob1771. As to conditions: read-out: IC50, forskolin-stimulated [3H]cAMP formation, Ob1771 pre-adipocytes. The format is cell-based. The procedure: (§1) The nucleotide prodrugs were tested for their capacity to inhibit the forskolin-stimulated formation of [^3H]cAMP in cells that had been preloaded with [^3H]adenine. Human macrophages and two preadipocyte cell lines were tested.
(§2) (i) Preadipocytes: Preadipocytes were cultured in DMEM LG medium that was supplemented with 8% fetal bovine serum and 1% of an antibiotics mixture in 2 ml Petri dishes until they reached 90-95% confluence. Growth medium was removed and 1 ml of DMEM LG medium containing 2,8-[^3H]-adenine (5μCi) was added to each dish. Cells were incubated for 2 h at 37° C. Medium was removed and cells were incubated for 15 min at 37° C. in 1 ml of unsupplemented medium. The medium was removed and 1 ml of DMEM LG medium supplemented with 0.1 mg/ml bovine serum albumin and 0.1 mM 3-isobutyl-1-methylxanthine was added.
(§3) Ten microliters of a solution of the test substance was added to yield the appropriate concentration of inhibitor in the medium. After 15 min of incubation at 37° C. 3 μl of a 10 mM solution of forskolin in ethanol was added to the medium and the cells were further incubated for 15 min at 37° C. The medium was removed and the reaction was stopped by the addition of 1 ml of a freshly prepared solution of 0.5 mM solution of cAMP in 0.3 M perchloric acid. Dishes were then kept on ice for 30 min. To 800 μl of the resulting cell extract was then added 90 μl of 0.5 M triethanolammonium chloride butler (pH=7.5). The extract was then neutralized by addition of aqueous potassium hydroxide. [^3H]cAMP was purified from a 700 μl portion of this mixture by sequential chromatography on Dowex 50 and alumina as previously described. A portion of the purified sample was used to quantify the […] formed and the remainder was used to quantify recovery by UV spectroscopy.
Background: Cyclic AMP is a second messenger, typically raised through Gs and lowered through Gi signalling.

The next experiment deals with F442A pre-adipocytes. Description: inhibition of forskolin-stimulated [3H]cAMP formation in cells prelabeled with [3H]adenine, F442A. The format is cell-based. As to conditions: 15 min preincubation, forskolin 15 min. As to the method:
as §1, §2, §3

Another experiment deals with rat atria. In words: contractility of isolated spontaneously contracting rat atria. As to conditions: preincubation with 10 μM for 15 min. As to the method:
To test this, rat atria were excised from a male albino rat and attached to a strain gauge to allow contractions to be measured. The spontaneously contracting tissue was suspended in a chamber and allowed to equilibrate for 15 min in Krebs-Henseleit medium (Sigma K3753) supplemented with 25 mM […], 2.5 mM CaCl2, and 2 mM pyruvate, maintained at 37° and continuously gassed with […].

For experiment [2], the system named is isoproterenol-stimulated, cAMP/PKA-dependent Cl− channel of cardiac ventricular myocytes. Description: block of isoproterenol-stimulated Cl- channel in cardiac ventricular myocytes. The format is cell-based. As to conditions: not shown, read-out: IC50 for block of Cl− channel function.
Experiment [3] has as its system adenylyl cyclase isolated from these tissues. In words: effect on adenylyl cyclase isolated from the tissues. Type of experiment: biochemical. As to conditions: concentrations up to 300 μM.
For the next experiment, the system named is preadipocyte cell lines. In words: differentiation of preadipocyte cell lines. The format is cell-based. As to conditions: both preadipocyte cell lines; not shown.
For a further experiment, the system named is Human Macrophages. Description: inhibition of forskolin-stimulated [3H]cAMP formation in cells prelabeled with [3H]adenine, macrophages. The format is cell-based. As to conditions: read-out: IC50, forskolin-stimulated [3H]cAMP formation, Human Macrophages. As to the method: as §1
(ii) Macrophages. Macrophages were plated on culture dishes and allowed to adhere in RPMI culture medium. Cells were labeled with 2,8-[^3H]-adenine as described above for the preadipocytes.
as §3

The test system of experiment [4] is rat brain adenylyl cyclase. Description: inhibition of rat brain adenylyl cyclase. Type of experiment: biochemical. As to the method:
(§4) Adenylyl cyclase activities were determined as previously described, with a reaction mixture containing 100 μM 5′ATP, 5 mM MnCl2, and 100 μM forskolin. IC50 values were determined graphically.

For experiment [5], the system named is adenylyl cyclase of Ob1771 cell membranes. Description: inhibition of adenylyl cyclase of Ob1771 cell membranes. Type of experiment: biochemical. The conditions noted are these: for pIC50: 100 μM 5′ATP, 5 mM MnCl2, 100 μM forskolin, determined graphically. The procedure: as §4
Where [6] appears, read: Table 1, from Johnson and coll. [27-32], read-out: IC50 for rat brain adenylyl cyclase.
Setting [7] is: Table 1, read-out: IC50 to inhibit adenylyl cyclase.
The mark [8] stands for this setting: Ob1771, 15 min preincubation, forskolin 15 min.
Where [9] appears, read: 100 μM 5′ATP, 5 mM MnCl2, 100 μM forskolin, determined graphically, read-out: IC50, Rat Brain Adenylyl Cyclase.
Where [10] appears, read: 2′-triphosphate forms, read-out: IC50 for inhibition of rat brain adenylyl cyclase.

pIC50: −log10 of the molar value. Read-outs that look alike come from different tables or passages of the source.

Consider `CC1OC(n2cnc3c(N)ncnc32)CC1OP(=O)(O)OP(=O)(O)OP(=O)(O)OP(=O)(O)O` (centres unmarked) [2′,5′ddAdo 3′˜PPPP], for which, in experiment [1] (setting [6]), the pIC50 is 8.13.
For the compound `C[C@H]1O[C@@H](n2cnc3c(N)ncnc32)C[C@@H]1OP(=O)(O)OP(=O)(O)OP(=O)(O)O` [2′,5′ddAdo 3′˜PPP], in experiment [1] (setting [7]), the pIC50 is 7.40.
With `CC1OC(n2cnc3c(N)ncnc32)CC1OP(=O)(O)OP(=O)(O)O` (centres unmarked) [2′,5′ddAdo 3′˜PP], in experiment [1] (setting [6]), the pIC50 is 7.00.
Turning to `C[C@H]1O[C@@H](n2cnc3c(N)ncnc32)C[C@@H]1OP(O)(O)=S` [2′,5′ddAdo 3′˜PS], in experiment [1] (setting [6]), the pIC50 is 6.22.
In the case of `C[C@H]1O[C@@H](n2cnc3c(N)ncnc32)C[C@@H]1OP(=O)(O)O` [2′,5′ddAdo 3′˜P], the pIC50 in experiment [1] (setting [6]) was 6.34.
Take `C[C@H]1O[C@@H](n2cnc3c(N)ncnc32)C[C@@H]1O` [2′,5′ddAdo, 2′,5′-dideoxyadenosine]: the pIC50 in experiment [1] (setting [6]) is 5.57.
For the compound `Nc1ncnc2c1ncn2C1CC(OP(=O)(O)OP(=O)(O)OP(=O)(O)OP(=O)(O)O)C(CO)O1` (centres unmarked) [2′dAdo 3′˜PPPP], the pIC50 in experiment [1] (setting [6]) is 7.98.
Turning to `Nc1ncnc2c1ncn2C1CC(OP(=O)(O)OP(=O)(O)OP(=O)(O)O)C(CO)O1` (centres unmarked) [2′dAdo 3′˜PPP], in experiment [1] (setting [6]), the pIC50 was 7.05.
As to `Nc1ncnc2c1ncn2C1CC(OP(=O)(O)OP(=O)(O)O)C(CO)O1` (centres unmarked) [2′dAdo 3′˜PP], the pIC50 in experiment [1] (setting [6]) was 6.85.
As to `Nc1ncnc2c1ncn2[C@H]1C[C@H](OP(O)(O)=S)[C@@H](CO)O1` [2′dAdo 3′˜PS], the pIC50 in experiment [1] (setting [6]) was 5.51.
As for `Nc1ncnc2c1ncn2[C@H]1C[C@H](OP(=O)(O)O)[C@@H](CO)O1` [2′dAdo 3′˜P], the pIC50 in experiment [1] (setting [6]) is 5.92.
For `Nc1ncnc2c1ncn2[C@H]1C[C@H](O)[C@@H](CO)O1` [2′dAdo], the pIC50 in experiment [1] (setting [6]) is 4.82.
As to `CC(C)(C)C(=O)SCCOP(=O)(OCCSC(=O)C(C)(C)C)O[C@H]1CCC[C@H]1n1cnc2c(N)ncnc21` [(1R,2S)-9-(cyclopentyl)-Ade-2′-P-bis(t-Bu-SATE)], the negative-log IC50 (pIC50) with Ob1771 pre-adipocytes (setting [8]) is less than 4.52.
In the case of `CC(C)(C)C(=O)SCCOP(=O)(OCCSC(=O)C(C)(C)C)O[C@@H]1CCC[C@@H]1n1cnc2c(N)ncnc21` [(1S,2R)-9-(cyclopentyl)-Ade-2′-P-bis(t-Bu-SATE)], the negative logarithm of the IC50 (pIC50) in the experiment with Ob1771 pre-adipocytes (setting [8]) is less than 4.52.
`Nc1ncnc2c1ncn2[C@@H]1O[C@H](CO)[C@@H](OP(=O)(O)OP(=O)(O)OP(=O)(O)O)[C@H]1O` [Ado 3′˜PPP]: the pIC50 in experiment [1] (setting [6]) is 5.70.
Take `Nc1ncnc2c1ncn2C1OC(CO)C(OP(=O)(O)OP(=O)(O)O)C1O` (centres unmarked) [Ado 3′˜PP]: in experiment [1] (setting [6]), the pIC50 was 5.41.
Regarding `Nc1ncnc2c1ncn2C1OC(CO)C(OP(=O)(O)O)C1O` (centres unmarked) [Ado 3′˜P], in [1] (setting [6]), the pIC50 was 5.05.
Consider `Nc1ncnc2c1ncn2[C@@H]1O[C@H](CO)[C@@H](O)[C@H]1O` [Ado], for which the pIC50 in experiment [1] (setting [6]) is 4.09.
`CC(=O)SCCOP(=O)(OCCSC(C)=O)O[C@H]1C[C@H](n2cnc3c(N)ncnc32)O[C@@H]1C` [Compound 1, 2′,5′-dideoxyadenosine-3′-O-bis(S-acetyl-2-thioethyl) phosphate] gave a pIC50 in the experiment with F442A pre-adipocytes of 7.52.
With `C[C@H]1O[C@@H](n2cnc3c(N)ncnc32)C[C@@H]1OP(=O)(OCCSC(=O)C(C)(C)C)OCCSC(=O)C(C)(C)C` [Compound 2, 2,5′-dideoxyadenosine-3′-O-bis(S pivaloyl-2-thioethyl) phosphate], in the experiment with rat atria, the “stimulation of contractility caused by phenylephrine” value is reported as “completely blocked”. The “stimulation of contractility caused by forskolin” value in the experiment on rat atria (not shown) was “completely blocked”. The pIC50 in the experiment with F442A pre-adipocytes was 7.00; in [2] it was roughly 7.09; with Ob1771 pre-adipocytes (setting [8]), 7.52; in the experiment with Human Macrophages (human macrophages, 15 min preincubation, forskolin 15 min), 7.30. The “effect on adenylyl cyclase isolated from these tissues” value in experiment [3] is recorded as “no effect”. The rate of differentiation result with preadipocyte cell lines is “accelerated rates of differentiation”. For the same compound, the “inhibition of Rat Brain Adenylyl Cyclase at 100 μM” value in experiment [4] (at 100 μM) is listed as “no inhibition”. Also, in [4] (isolated enzyme), the “effect on the activity of adenylyl cyclases per se, enzyme from rat brain” value is reported as “no effect”. Besides, in experiment [5] (at 100 μM), the “inhibition of adenylyl cyclase of Ob1771 cell membranes at 100 μM” value worked out at 20% inhibition. In addition, the “effect on the activity of adenylyl cyclases per se, enzyme from the preadipocytes” value in experiment [5] (isolated enzyme) is listed as “no effect”.
For the compound `C[C@H]1O[C@@H](n2cnc3c(N)ncnc32)C[C@@H]1OP(=O)(OCCSC(=O)c1ccccc1)OCCSC(=O)c1ccccc1` [Compound 3, 2,5′-dideoxyadenosine-3′-O-bis(S-benzoyl-2-thioethyl) phosphate], in the experiment on F442A pre-adipocytes, the pIC50 was 6.10.
`C[C@H]1O[C@@H](n2cnc3c(N)ncnc32)C[C@@H]1OP(=O)(OCCSC(=O)C(C)(C)C)OCCSC(=O)C(C)(C)C` [Compound 5, β-L-2′,5′-dideoxyadenosine-3′-O-bis(S-pivaloyl-2-thioethyl)-phosphate] showed a pIC50 with F442A pre-adipocytes of roughly 5.70.
On to `CC(C)(C)C(=O)SCCOP(=O)(OCCSC(=O)C(C)(C)C)OC[C@@H]1CC[C@H](n2cnc3c(N)ncnc32)O1` [Compound 8, β-L-2′,3′-dideoxyadenosine-5′-O-bis(S-pivaloyl-2-thioethyl)-phosphate], for which the pIC50 in the experiment on Ob1771 pre-adipocytes (setting [8]) was less than 4.52.
As for `CC1OC(n2cnc3c(N)ncnc32)CC1OP1(=O)OCc2ccccc2O1` (centres unmarked) [Compound 10, 2′,5′-dideoxyadenosine-3.0-cyclosaligenyl phosphate], the pIC50 is roughly 5.70 with Ob1771 pre-adipocytes; roughly 5.70 in the experiment on Human Macrophages (Homo sapiens, Macrophage); 5.15 in experiment [4] (setting [9]); 4.52 in experiment [5].
Regarding `Cc1cccc2c1OP(=O)(OC1CC(n3cnc4c(N)ncnc43)OC1C)OC2` (centres unmarked) [Compound 11, 2′,5′-dideoxyadenosine-3′-O-cyclo-3-methyl-saligenyl phosphate], the pIC50 in the experiment with Ob1771 pre-adipocytes was roughly 5.70; in experiment [4] (setting [9]) it was 5.15; in [5] it was 4.22.
For `CC(C)(C)C(=O)SCCOP(=O)(COCCn1cnc2c(N)ncnc21)OCCSC(=O)C(C)(C)C` [Compound 13, bis(t-Bu-SATE)-9-(2-phosphonomethoxyethyl)-adenine], the pIC50 in the experiment with Ob1771 pre-adipocytes (setting [8]) was less than 4.52.
In the experiment with F442A pre-adipocytes, `C[C@H](Cn1cnc2c(N)ncnc21)OCP(=O)(OCCSC(=O)C(C)(C)C)OCCSC(=O)C(C)(C)C` [Compound 16, (R)-Bis(S-pivaloyl-2-thioethyl) 9-(2-phosphonylmethoxypropyl)-adenine] showed a pIC50 of less than 4.52.
As to `Nc1ncnc2c1ncn2CCOCP(=O)(O)O` [PMEA, 9-(phosphonomethoxyethyl)-adenine], the pIC50 in experiment [1] (setting [6]) was 4.19.
On to `Nc1ncnc2c1ncn2CCOCP(=O)(O)OP(=O)(O)OP(=O)(O)O` [PMEApp], for which the pIC50 in experiment [1] (setting [7]) is 6.77.
`Nc1ncnc2c1ncn2[C@@H]1CCC[C@@H]1OP(=O)(O)OP(=O)(O)OP(=O)(O)O` [reference compound]: in experiment [4] (setting [10]), the pIC50 is 6.35.
Regarding `Nc1ncnc2c1ncn2[C@H]1CCC[C@H]1OP(=O)(O)OP(=O)(O)OP(=O)(O)O` [reference compound], in experiment [4] (setting [10]), the pIC50 was 5.01.
In the case of `Nc1ncnc2c1ncn2[C@@H]1CC[C@H](COP(=O)(O)O)O1` [β-L-2′,3′-dd-5′-AMP], in experiment [1] (setting [6]), the pIC50 was 4.21.
In the case of `Nc1ncnc2c1ncn2C1CCC(COP(=O)(O)OP(=O)(O)OP(=O)(O)O)O1` [β-L-2′,3′-dd-5′-ATP], the pIC50 in experiment [1] (setting [7]) is 7.62.
Take `Nc1ncnc2c1ncn2[C@H]1O[C@@H](COP(=O)(O)O)[C@H](O)[C@@H]1O` [β-L-5′-AMP]: the pIC50 in experiment [1] (setting [6]) is 3.70.

Broadly, the pIC50 is the negative decadic logarithm of the IC50, by convention in mol/L.

The values above are taken from patent US7045309B2, “9-substituted adenine derivatives as prodrug regulators of cell and tissue function” (The Research Foundation of State University of New York, priority 2000, dated 2006).
